Like-named read-outs stand apart in the source and are kept apart here.
Legend:
[1] = tested on: human promyelocytic leukemia HL-60; assay: MTT antiproliferative assay, HL-60; assay type: cell-based; conditions: mean of 3 independent experiments, read-out: Antiproliferative activity IC50 ± S.D., HL-60 (head prints HL-6)
[2] = tested on: lung adenocarcinoma H1650; assay: MTT antiproliferative assay, H1650; assay type: cell-based; conditions: mean of 3 independent experiments, read-out: Antiproliferative activity IC50 ± S.D., H1650
Experimental: Cell proliferation was evaluated in cell lines by the MTT assay in triplicates. 10^4 cells were plated in a 96-well microtiter plate in a final volume of 100 μl of culture medium. Cells were treated for 24 h with test compound at 37 °C with 5% CO2. After treatment, the cells were immediately incubated with 10 μl MTT (5.0 mg/mL) for 4 h at 37°C. The cells were then lysed in 100 μl of lysis buffer (isopropanol, conc. HCl and Triton X-100) for 10 min at room temperature and 300 rpm/min shaking. The enzymatic reduction of MTT to formazan crystals that dissolved in DMSO was quantified by photometry at 570 nm. […] 5-Flurouracil was used as a positive control.

Pim-1 kinase = target: T1, Pim-1 kinase (Homo sapiens, UniProt P11309); assay: Pim-1 kinase assay (HTScan Kinase Assay); assay type: biochemical
T1 construct: purchased Cell Signaling Technology
T1 sequence (P11309 whole entry): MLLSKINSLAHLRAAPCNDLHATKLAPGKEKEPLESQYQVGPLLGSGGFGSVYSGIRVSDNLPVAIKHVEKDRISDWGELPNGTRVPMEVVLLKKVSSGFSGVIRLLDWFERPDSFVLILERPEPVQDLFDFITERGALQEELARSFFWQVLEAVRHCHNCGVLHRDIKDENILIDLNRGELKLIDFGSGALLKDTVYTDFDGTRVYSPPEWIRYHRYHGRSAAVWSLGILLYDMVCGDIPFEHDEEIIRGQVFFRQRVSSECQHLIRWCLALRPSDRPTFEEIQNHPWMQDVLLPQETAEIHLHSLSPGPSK

[3] = tested on: human colon adenocarcinoma HT-29; assay: MTT antiproliferative assay, HT-29; assay type: cell-based; conditions: mean of 3 independent experiments, read-out: Antiproliferative activity IC50 ± S.D., HT-29
Pim-1 = tested on: Pim-1; set-up: method as in Nakano et al., 2012; conditions: ligand of PDB code 3umw; ref Nakano et al., 2012; read-out: Pim-1 IC50 of co-crystalized ligand; cited from earlier work
[4] = Homo sapiens, HL-60, 24 h treatment
[5] = Homo sapiens, NCI-H1650, 24 h treatment
[6] = Homo sapiens, HT-29, 24 h treatment
[7] = 50 ng Pim-1, 200 μM ATP, 1.5 μM biotinylated BAD Ser112 peptide, 30 min, mean of 3 independent experiments, read-out: In-vitro Pim-1 kinase inhibitory activity IC50 ± S.D.

SMILES	IC50 [1, 4]	IC50 [2, 5]	IC50 [3, 6]	IC50 (Pim-1 kinase; [7])	IC50 ([1]; 24 h treatment)	IC50 ([2]; 24 h treatment)	IC50 ([3]; 24 h treatment)	IC50 (Pim-1 kinase)	IC50 (Pim-1)
C[C@@H]1C[C@H]2CC[C@H](O2)[C@H](C)C(=O)O[C@@H](C)C[C@@H]2CC[C@@H](O2)[C@@H](C)C(=O)O[C@H](C)C[C@H]2CC[C@H](O2)[C@H](C)C(=O)O[C@@H](C)C[C@@H]2CC[C@@H](O2)[C@@H](C)C(=O)O1 [Compound 4, Nonactin]	> 100 µM	> 100 µM	> 100 µM	–	–	–	–	> 20 µM	–
O=C1Nc2cc(Br)ccc2[C@@]1(O)c1c[nH]c2ccccc12 [Compound 3, (S) 6-bromo-3-hydroxy-3-(1H-indol-3-yl) indolin-2-one]	–	> 100 µM	–	–	–	–	–	–	–
COc1ccc2c(c1CN1CCNCC1)OC(=Cc1n[nH]c3ccccc13)C2=O [co-crystalized ligand]	–	–	–	–	–	–	–	–	0.003 µM
O=c1[nH]cc(F)c(=O)[nH]1 [5-Flurouracil, reference compound]	–	–	–	–	0.2 ± 0.43 µM	0.5 ± 0.67 µM	0.3 ± 0.35 µM	–	–
COc1ccc(/C=C/C(=N)/C=C2/C(=O)Nc3cc(Br)ccc32)cc1 [Compound 1, (E)-6-bromo-3-((E)-2-imino-4-(4-methoxyphenyl)but-3-en-1-ylidene)indolin-2-one]	–	> 100 µM	–	–	–	–	–	–	–
CC(=O)C[C@@]1(O)C(=O)Nc2cc(Br)ccc21 [Compound 2, (S) enantiomer of (R)-6-Bromo-3-hydroxy-3-(2 oxopropyl)indolin-2-one]	> 100 µM	> 100 µM	> 100 µM	> 20 µM	–	–	–	–	–

More lines, main results first:

IC50 [1, 4]	IC50 [2, 5]	IC50 [3, 6]	IC50 (Pim-1 kinase; [7])	IC50 ([1]; 24 h treatment)	IC50 ([2]; 24 h treatment)	IC50 ([3]; 24 h treatment)	SMILES	IC50 (Pim-1 kinase)	IC50 (Pim-1)
> 100 µM	> 100 µM	> 100 µM	> 20 µM	–	–	–	O=C(O)c1cc(O)c2ccccc2c1O [Compound 11, 1,4 dihydroxy-2-naphthoic acid]	–	–
> 100 µM	> 100 µM	> 100 µM	> 20 µM	–	–	–	O=C(O)c1ccc2ccccc2c1O [Compound 10, 1-hydroxy-2-naphthoic acid]	–	–
> 100 µM	> 100 µM	> 100 µM	> 20 µM	–	–	–	O=Cc1c[nH]c2ccccc12 [Compound 6, indole-3-carbaldehyde]	–	–
> 100 µM	> 100 µM	> 100 µM	> 20 µM	–	–	–	OCCc1c[nH]c2ccccc12 [Compound 7, tryptophol]	–	–
> 100 µM	> 100 µM	> 100 µM	> 20 µM	–	–	–	O=C(O)C(=O)Cc1c[nH]c2ccccc12 [Compound 8, indole-3-pyruvic acid]	–	–
> 100 µM	> 100 µM	> 100 µM	> 20 µM	–	–	–	CC(c1c[nH]c2ccccc12)c1c[nH]c2ccccc12 [Compound 5, vibrindole]	–	–
> 100 µM	> 100 µM	> 100 µM	> 20 µM	–	–	–	Cc1c[nH]c2ccccc12 [Compound 9, skatole]	–	–

Source: PMC6262321, “New Pim-1 Kinase Inhibitor From the Co-culture of Two Sponge-Associated Actinomycetes” (Frontiers in Chemistry, 2018)
